Data on one molecule can be found in patent US20170281611A1, “QUINOLINES AND THEIR USE FOR TREATING ENDOPLASMIC RETICULUM STRESS-CAUSED DISEASES” (EIGER BIOPHARMACEUTICALS, INC., priority 2014, published 2017).

One experiment has as its system APP-PS1 mice. In words: Alzheimer's disease model, Aβ deposition (Thioflavin S staining). The class given is in vivo, mouse. The note with it: 10 mg/kg ip for 4 weeks, vs saline. The method, then:
PS1/APP mice (PS1M146V and APPSWE) (Howlett et al., Brain Res. 2004, 1017, 130-136) were used. Age-matched NTg controls were on the same background strain (C57bl6/J9).
Mice were transcardially perfused with ice-cold PBS (3 mL) followed by 4% paraformaldehyde (5 mL). Brains were extracted and fixed overnight in 30% sucrose-cryoprotectant solution. Coronal hippocampal sections 40 μm thick were cut on a cryostat and collected in TBS (0.1 M Tris, 0.9% saline, pH 7.4).
Free-floating hippocampal sections were washed with TBS (4×3 min). The sections were soaked in 0.5% thioflavin S (in 50/50 ethyl alcohol/distilled water, Sigma-Aldrich) for 10 min, followed by 2×3 min washes with 50% ethyl alcohol. Sections were washed again with TBS (2×3 min), mounted with minimal drying, and coverslipped with anti-fade mounting medium PVA-DABCO for microscopy.
Confocal images of immunolabeled tissue were obtained using 4× and 10× objective lenses on the Olympus Fluoview confocal microscope. Density of amyloid plaques was quantified by averaging the percent area staining positive (thresholded above background staining, as determined by software parameters and experimenter confirmation) within the hippocampus and cortex from 3-5 sections from each experimental animal using MetaMorph Software (Molecular Devices). […]

In experiment [1] the target is human nerepinephrine (NET) transporter (Homo sapiens, UniProt P23975). In words: Selectivity panel of 164 targets: NET. The note with it: 10 μM in duplicate; one of only 4 hits among 164 targets. The text has this:
The methods used here for each target were adapted from the scientific literature to maximize reliability and reproducibility.

human nerepinephrine (NET) transporter, sequence (P23975 whole entry): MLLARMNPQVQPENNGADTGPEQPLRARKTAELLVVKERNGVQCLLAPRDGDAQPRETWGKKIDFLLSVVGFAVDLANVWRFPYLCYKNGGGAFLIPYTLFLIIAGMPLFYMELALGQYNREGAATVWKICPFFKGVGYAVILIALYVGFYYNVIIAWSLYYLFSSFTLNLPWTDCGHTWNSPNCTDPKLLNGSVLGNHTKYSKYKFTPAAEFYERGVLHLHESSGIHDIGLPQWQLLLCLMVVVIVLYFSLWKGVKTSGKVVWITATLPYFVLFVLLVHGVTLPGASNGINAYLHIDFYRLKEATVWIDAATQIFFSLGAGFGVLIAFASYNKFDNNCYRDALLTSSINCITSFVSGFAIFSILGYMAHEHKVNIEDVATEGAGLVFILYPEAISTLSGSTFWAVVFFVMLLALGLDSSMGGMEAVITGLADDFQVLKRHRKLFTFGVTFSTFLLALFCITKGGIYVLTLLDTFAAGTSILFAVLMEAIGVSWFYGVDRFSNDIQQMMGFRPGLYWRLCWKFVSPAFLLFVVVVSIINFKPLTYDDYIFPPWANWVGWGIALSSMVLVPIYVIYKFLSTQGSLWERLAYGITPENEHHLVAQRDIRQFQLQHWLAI

For the molecule `Cc1ccc2cccc(NC(=O)c3ccc(OC(C)C)cc3)c2n1` [Compound A12, 4-Isopropoxy-N-(2-methylquinolin-8-yl)benzamide], the “amyloid plaques stained with Thioflavin S” value in the experiment on APP-PS1 mice is on record as “reduced”. Further, the “response against human nerepinephrine (NET) transporter” value in experiment [1] is “significant responses”.
